The text below walks through data of patent US20220401460A1, “MODULATING RESISTANCE TO BCL-2 INHIBITORS” (Dana-Farber Cancer Institute, Inc., priority 2018, published 2022).

Residues, ends and D or L forms follow the SMILES beside them. *: point of attachment. Cbz = O=C(OCc1ccccc1)*; CH2F = FC*

For test [1], the system named is OCI-Ly1-S cells. Description: Cell Titer-Glo viability assay and Chou-Talalay synergy analysis, parental OCI-Ly1-S cells. It is filed as cell-based, human. A general note: Cellular ATP, detected with luciferase, serves as a proxy for viable cell number.
Another test deals with OCI-Ly1-R cells. Description: Cell Titer-Glo viability assay, venetoclax-resistant OCI-Ly1-R cells. It is filed as cell-based, human. The conditions noted are these: for restoration of venetoclax sensitivity: combination with venetoclax, OCI-Ly1-R cells.
The test system of test [2] is ID3 knockout OCI-Ly1 cells. Description: Viability of single-cell clones from ID3 knockout OCI-Ly1 cells. Format: cell-based, human. Particulars: single cell clones from ID3 knockout line, viability at 24 hours. As to the method: (§1) Cell viability assay. The Cell Titer-Glo Luminescent Cell Viability Assay (Promega) was used to determine the relative number of viable cells after drug treatment. 0.2×10^6 cells/mL were seeded in a 24 well-plate and treated with drugs for 24 or 48 hours. The viability assay was conducted using the manufacturer's protocol after treatment. Values were normalized to DMSO-treated cells. Plates were read on a SpectraMax M3 reader (Molecular Devices).
Single-cell cloning of the ID3 knockout. OCI-Ly1 cells was performed using […] dilution strategy. Cells from the bulk ID3 OCI-Ly1 were seeded at a concentration of 0.5 cells/well in a 96-well plate (5 plates per cell line). To investigate the presence of mutations, 6 clones per sgRNA were analyzed by PCR and Sanger sequencing using primers flanking the target sites for the sgRNAs (Forward primer: 5′-[…]-3′ (SEQ ID NO:1); Reverse:5′-[…]-3′ (SEQ ID NO:2)). The absence of ID3 protein were confirmed in clones harboring loss-of-function mutations by western blot (FIG. 8d). Three different knockout single-cell clones for each sgRNA were used for further functional studies.

For test [3], the system named is knockout and overexpression OCI-Ly1 cell lines. Nature of the test: Viability/growth of single-gene knockout and overexpression OCI-Ly1 cell lines. Format: cell-based, human. Particulars: individual knockout cell lines vs lines transduced with 2 non-targeting control sgRNAs; P<0.05. As to the method:
as §1
Cloning of sgRNA vectors. […]
Generation of engineered cell lines. […] As confirmation that the engineered cell lines expressed the expected alterations, Applicants: (i) evaluated the expression of the targeted protein by western-blotting (FIG. 6d), and (ii) for the CRISPR-Cas9 engineered cell lines, performed targeted DNA sequencing for the CRISPR target sites before and after 2 weeks of exposure to venetoclax (100 nM), and assessed the proportion of frameshift indels (FIG. 6g). […] Following PCR, samples were purified with Agencourt AMPure XP beads (Beckman Coulter) and quantified on a Bioanalyzer (Agilent) with High Sensitivity DNA chips. Sample libraries were diluted to 4 nM, pooled, and ran on the Illumina MiSeq platform using single-end sequencing with the following parameters: read 1: 296nt, index 1: 6nt.

For test [4], the system named is OCI-Ly1-S cells. Nature of the test: Seahorse oxygen consumption (OCR) and extracellular acidification rate (ECAR), OCI-Ly1-S. Format: cell-based, human. How it is done:
Measurement of oxygen consumption and extracellular acidification rate. For each condition, 1.25×10^5 cells were counted and plated on a Seahorse plate coated with Cell-Tak (Corning Life Sciences) in Seahorse XF DMEM media (Agilent). OCR and ECAR were recorded using a Seahorse XF96 Analyzer (Agilent) for 24 consecutive measurements. OCR is measured before and after the addition of inhibitors to assess mitochondrial function by deriving several parameters of mitochondrial respiration: (i) basal respiration, (ii) ATP-linked respiration and proton leak respiration (after 3 μM oligomycin [Sigma], a complex V inhibitor) and (iii) maximal respiration (after 1 μM carbonyl cyanide m-chlorophenyl hydrazine (CCCP) [Sigma], a protonophore).
To measure the effect of venetoclax on OCR/ECAR, cells were pre-treated for 1 h with […] of zVAD-FMK (Abcam) or left untreated and OCR/ECAR were recorded for 4 measurements before injection of venetoclax at a final concentration of 100 nM. DMSO injection was used as control.

The test system of a further test is CLL patients. Nature of the test: CLL patients treated with venetoclax in clinical trials (response, progression). Format: in vivo, human. The source says: Human samples. Genomic DNA was isolated (DNAeasy Blood and Tissue Kit, Qiagen) from specimens collected from CLL patients enrolled on clinical trials of venetoclax treatment (NCT01328626, NCT02141282), approved by and conducted in accordance with the principles of the Declaration of Helsinki and with the approval of the Institutional Review Boards (IRB) of the University of Texas/MD Anderson Cancer Center (MDACC; Patients 1, 3, 4) or of Dana-Farber Cancer Institute (DFCI; Patient 2, 5, 6). Blood and/or tissue tumor samples were collected at baseline, before initiation of venetoclax therapy, and at relapse or progression on venetoclax.

Setting [5] is: 6 CLL patients progressing on venetoclax.

Turning to `Cc1c(-c2c(-c3ccc(F)o3)sc3ncnc(O[C@H](Cc4ccccc4OCc4ccnn4CC(F)(F)F)C(=O)O)c23)ccc(OCCN2CCN(C)CC2)c1Cl` [S63845], in the test on OCI-Ly1-S cells [1] (combination with venetoclax, OCI-Ly1-S cells, Chou-Talalay method), the “combination index (synergy with venetoclax)” value is below 1. In addition, the synergy with venetoclax entry in the test on OCI-Ly1-R cells (OCI-Ly-R cells) is “synergized”. For the same molecule, the “restoration of venetoclax sensitivity” value in the test on OCI-Ly1-R cells was “restore venetoclax sensitivity”.

As to `CC[C@H]1/C=C/C=C/C[C@@H](C)[C@H](O)[C@@](C)(O)C(=O)[C@@H](C)[C@H](O)[C@@H](C)C(=O)[C@@H](C)[C@H](O)[C@@H](C)/C=C/C(=O)O[C@@H]2[C@H](C)[C@H](CC1)O[C@]1(CC[C@H](C)[C@H](C[C@@H](C)O)O1)[C@H]2C` [oligomycin], the “restoration of venetoclax sensitivity” value in the test with OCI-Ly1-R cells was “restore sensitivity to venetoclax”. Further, in test [2], the “sensitivity to the combination with venetoclax vs control cells” value is listed as “more sensitive”.

For the molecule `CC1(C)CCC(CN2CCN(c3ccc(C(=O)NS(=O)(=O)c4ccc(NCC5CCOCC5)c([N+](=O)[O-])c4)c(Oc4cnc5[nH]ccc5c4)c3)CC2)=C(c2ccc(Cl)cc2)C1` [venetoclax], the IC50 with OCI-Ly1-S cells [1] (Homo sapiens, parental OCI-Ly1-S cells) worked out at 4 nM; in the test with OCI-Ly1-R cells (Homo sapiens, OCI-Ly1-R cells generated by chronic in vitro drug exposure), 1000 nM. Also, the “median increase in IC50” value in test [3] was 2.1 fold. Moreover, the “decrease in oxygen consumption” value in the test with OCI-Ly1-S cells [4] (OCI-Ly1-S cells, within 20 minutes after drug exposure, venetoclax 100 nM) is reported as 2 fold. Further, the “median time to relapse” value in the test with CLL patients (setting [5]) was 16.4 months. In addition, in the test on CLL patients (setting [5]), the “range of time to relapse” value is given as 5.1-22.8 months. For the same molecule, the “Time to progression (months)” value in the test with CLL patients (Patient 1, daily dose 400 mg) was 22.8 months; in the test on CLL patients (Patient 2, daily dose 400 mg) it was 7.1 months; in the test with CLL patients (Patient 3, daily dose 400 mg), 16.4 months; with CLL patients (Patient 4, daily dose 400 mg) it was 5.1 months; in the test with CLL patients (Patient 5, daily dose 400 mg), 8.2 months; in the test with CLL patients (Patient 6, daily dose 1200 mg then 400 mg), 22.8 months.

For the molecule `COC(=O)C[C@H](NC(=O)[C@H](C)NC(=O)[C@@H](NC(=O)OCc1ccccc1)C(C)C)C(=O)CF` [zVAD] (Cbz-Val-Ala-Asp(OMe)-CH2F), the “prevention of venetoclax impact on OXPHOS” value in the test with OCI-Ly1-S cells [4] (1 h pre-treatment with zVAD-FMK before venetoclax) is “not fully prevented”.

By IC50 is commonly meant the point on the concentration scale where inhibition reaches its midpoint.
